Experiments:
BT-474 [1] = assay: Antiproliferative activity against trastuzumab-sensitive HER2-positive human BT-474 cells assessed as cell viability at 10 uM after 72 hrs by MTS assay; type: functional; settings: read-out: Activity
JIMT-1 [2] = assay: Antiproliferative activity against trastuzumab-resistant HER2-positive human JIMT-1 cells assessed as cell viability at 10 uM after 72 hrs by MTS assay; type: functional; settings: read-out: Activity
HEK293 = assay: Cytotoxicity against human HEK293 cells assessed as reduction in cell viability at 10 uM after 72 hrs by MTS assay; type: cell-based; settings: hek293, 72 h
BT-474 [3] = assay: Antiproliferative activity against trastuzumab-sensitive HER2-positive human BT-474 cells assessed as reduction in cell viability after 72 hrs by MTS assay; type: functional, cell-based; settings: dose 0.1-20 µM
SK-BR-3 = assay: Antiproliferative activity against trastuzumab-sensitive human SK-BR-3 cells assessed as reduction in cell viability after 72 hrs by MTS assay; type: functional, cell-based; settings: dose 0.1-20 µM
JIMT-1 [4] = assay: Antiproliferative activity against trastuzumab-resistant HER2-positive human JIMT-1 cells assessed as reduction in cell viability after 72 hrs by MTS assay; type: functional, cell-based; settings: dose 0.1-20 µM
MDA-MB-453 = assay: Antiproliferative activity against trastuzumab-resistant human MDA-MB-453 cells assessed as reduction in cell viability after 72 hrs by MTS assay; type: functional, cell-based; settings: dose 0.1-20 µM
Heat shock protein HSP90 [5] = molecular target: T1, Heat shock protein HSP90 (Homo sapiens, UniProt P07900+P08238); assay: Inhibition of HSP90 at N-terminus in human BT-474 cells assessed as increase in nuclear HSF1 protein level at 10 uM incubated for 24 hrs by immunostaining analysis; type: cell-based; settings: bt-474, 24 h
Heat shock protein HSP90 [6] = molecular target: T1, Heat shock protein HSP90; assay: Inhibition of HSP90 at N-terminus in human BT-474 cells assessed as increase in cytosolic HSP90 protein level at 10 uM incubated for 24 hrs by immunostaining analysis; type: cell-based; settings: bt-474, 24 h
Heat shock protein HSP90 [7] = molecular target: T1, Heat shock protein HSP90; assay: Inhibition of HSP90 at C-terminus in trastuzumab-sensitive human BT-474 cells assessed as downregulation of HER2 protein expression incubated for 72 hrs by Western blot analysis; type: cell-based; settings: dose 2-10 µM
Heat shock protein HSP90 [8] = molecular target: T1, Heat shock protein HSP90; assay: Inhibition of HSP90 at C-terminus in trastuzumab-resistant human […] cells assessed as downregulation of HER2 protein expression incubated for 72 hrs by Western blot analysis; type: cell-based; settings: JIMT-1, dose 2-10 µM
Heat shock protein HSP90 [9] = molecular target: T1, Heat shock protein HSP90; assay: Inhibition of HSP90 at C-terminus in trastuzumab-sensitive human BT-474 cells assessed as downregulation of Akt protein expression incubated for 72 hrs by Western blot analysis; type: cell-based; settings: dose 2-10 µM
Heat shock protein HSP90 [10] = molecular target: T1, Heat shock protein HSP90; assay: Inhibition of HSP90 at C-terminus in trastuzumab-resistant human […] cells assessed as downregulation of Akt protein expression incubated for 72 hrs by Western blot analysis; type: cell-based; settings: JIMT-1, dose 2-10 µM
Heat shock protein HSP90 [11] = molecular target: T1, Heat shock protein HSP90; assay: Inhibition of HSP90 at C-terminus in trastuzumab-sensitive human BT-474 cells assessed as downregulation of cyclinD1 protein expression incubated for 72 hrs by Western blot analysis; type: cell-based; settings: dose 2-10 µM
Heat shock protein HSP90 [12] = molecular target: T1, Heat shock protein HSP90; assay: Inhibition of HSP90 at C-terminus in trastuzumab-resistant human […] cells assessed as downregulation of cyclinD1 protein expression incubated for 72 hrs by Western blot analysis; type: cell-based; settings: JIMT-1, dose 2-10 µM
Heat shock protein HSP90 [13] = molecular target: T1, Heat shock protein HSP90; assay: Inhibition of HSP90 at C-terminus in trastuzumab-sensitive human BT-474 cells assessed as downregulation of survivin protein expression incubated for 72 hrs by Western blot analysis; type: cell-based; settings: dose 2-10 µM
Heat shock protein HSP90 [14] = molecular target: T1, Heat shock protein HSP90; assay: Inhibition of HSP90 at C-terminus in trastuzumab-resistant human […] cells assessed as downregulation of survivin protein expression incubated for 72 hrs by Western blot analysis; type: cell-based; settings: JIMT-1, dose 2-10 µM

With COc1cc2c(C(OC(=O)C3CC3)c3ccc4c(c3OC)C=CC(C)(C)O4)ccnc2cc1OCCCN1CCN(C)CC1 (configuration not stated) the viability at 10 µM (BT-474 [1]) was under 20%, the viability at 10 µM (JIMT-1 [2]) was under 20% and the Activity (HEK293) was “Toxic”. The Activity (BT-474 [3]) was “Dose-Dependent Effect”, the Activity (SK-BR-3) was “Dose-Dependent Effect” and the Activity (JIMT-1 [4]) was “Dose-Dependent Effect”. The Activity (MDA-MB-453) was “Dose-Dependent Effect”, the “inhibition (INH)” value (Heat shock protein HSP90 [5]) was “Not Active” and the “inhibition (INH)” value (Heat shock protein HSP90 [6]) was “Not Active”. For the same molecule, the inhibition (Heat shock protein HSP90 [7]) was “Dose-Dependent Effect”, the inhibition (Heat shock protein HSP90 [8]) was “Dose-Dependent Effect” and the inhibition (Heat shock protein HSP90 [9]) was “Dose-Dependent Effect”. For the same molecule, the inhibition (Heat shock protein HSP90 [10]) was “Dose-Dependent Effect”, the inhibition (Heat shock protein HSP90 [11]) was “Dose-Dependent Effect” and the inhibition (Heat shock protein HSP90 [12]) was “Dose-Dependent Effect”. For the same molecule, the inhibition (Heat shock protein HSP90 [13]) was “Dose-Dependent Effect” and the inhibition (Heat shock protein HSP90 [14]) was “Dose-Dependent Effect”.

Source: ChEMBL document CHEMBL4811280, “Discovery of a simplified deguelin analog as an HSP90 C-terminal inhibitor for HER2-positive breast cancer” (Bioorg Med Chem Lett, 2021)
